Measured values: patent US20230100838A1 (Revolution Medicines, Inc., priority 2019, published 2023)

Columns and labels:
Type in all cases: binding
[1] = target: T1, GDP-loaded K-Ras (1-169) G12D, C51S, C80L, C118S (Homo sapiens, UniProt P01116, C118S/C51S/C80L/G12D); experiment: K-Ras G12D(GDP) cross-linking assay (conjugate formation, TOF mass spectrometry); details: percent covalently modified K-Ras by MS, room temperature, typical compound conc. 2, 10, 25 μM, endpoints 1 and 24 h
T1 construct: GDP-loaded K-Ras (1-169) G12D, C51S, C80L, C118S
Summary of the method: (§1)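 5 μM protein (final, from 50 μM) in HEPES/NaCl/MgCl2 buffer pH 7.4 with compound typically at 2, 10 and 25 μM, room temperature, 1 and 24 h endpoints; formic acid quench. Intact-protein LC–TOF MS; percent modification is covalent adduct peak height over total K-Ras peak height.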

K-Ras G12S = K-Ras G12S (Homo sapiens, UniProt P01116, G12S); experiment: K-Ras G12S cross-linking assay (comparable procedure, conjugate formation, TOF mass spectrometry)
Method: Protocol: K-Ras G12D(GDP) Cross-Linking Assay
Note: while the following protocol outlines the procedure for K-Ras G12D(GDP), a person of skill in the art may substitute other Ras proteins, and may also substitute a non-hydrolyzable GTP analog for GDP to study GTP bound Ras protein.
GDP-loaded K-Ras (1-169) G12D, C51S, C80L, C118S and GDP-loaded K-Ras (1-169) C51S, C80L, C118S were adjusted to 50 μM in K-Ras assay buffer (12.5 mM HEPES, 75 mM NaCl and 1 mM MgCl2 at pH 7.4). A 5 μL aliquot of each protein solution was added to each well of a 96-well microplate containing 40 μL of assay buffer. Initial compound stocks were prepared in DMSO at 100 times their final assay concentration. Compounds were then diluted 10-fold into K-Ras assay buffer to 10 times their final concentration. A 5 μL aliquot of each diluted compound solution was added to each protein solution in the 96-well microplate to initiate the reaction, which then proceeded at room temperature. Typical final compound concentrations were 2, 10, and 25 μM. At each time point, the reactions were analyzed immediately or quenched with 5 μL of a 5% formic acid solution and kept at 4° C. until analysis. Typical assay endpoints were 1 and 24 h.
Data collection took place on an Agilent 6230 TOF Mass Spectrometer. Complete reactions were injected onto a C4 reverse-phase column to separate protein from buffer components prior to entering the mass spectrometer. The proteins were eluted from the column by increasing acetonitrile fraction in the mobile phase and fed directly into the mass analyzer. Initial analysis of raw data took place in Agilent MassHunter BioConfirm software and consisted of deconvolution of multiple protein charge states with the maximum entropy algorithm, with a mass step of 1 Da. The heights of all deconvoluted protein masses were exported for further data analysis. The percent modification of each protein was then determined by calculating the peak height of the covalently modified K-Ras species as a percentage of the sum total of K-Ras protein peak height.

[2] = target: T2, GDP-loaded K-Ras (1-169) C51S, C80L, C118S (Homo sapiens, UniProt P01116, C118S/C51S/C80L); experiment: K-Ras WT (GDP) cross-linking assay (conjugate formation, TOF mass spectrometry); details: percent covalently modified K-Ras by MS, room temperature, typical compound conc. 2, 10, 25 μM, endpoints 1 and 24 h
T2 construct: GDP-loaded K-Ras (1-169) C51S, C80L, C118S
Summary of the method: as §1

[3] = Table 4, percent covalently modified K-Ras by MS
[4] = Table 5, percent covalently modified K-Ras by MS

G12D x-linking (%) ([1]; Table 4)	G12S x-linking (%) (K-Ras G12S; [3])	WT x-linking (%) ([2]; Table 4)	G12D x-linking (%) ([1]; Table 5)	G12S x-linking (%) (K-Ras G12S; [4])	WT x-linking (%) ([2]; Table 5)	SMILES
+++ (40 < x ≤ 100)	++ (10 < x ≤ 100)	++ (20 < x ≤ 100)	–	–	–	Cc1cccc2cccc(N3CCc4c(nc(OC[C@@H]5CCCN5C)nc4N(C)CCCN=C=NCc4ccccc4)C3)c12 [Example 31, N-(3-(((benzylimino)methylene)amino)propyl)-N-methyl-7-(8-methylnaphthalen-1-yl)-2-(((S)-1-methylpyrrolidin-2-yl)methoxy)-5,6,7,8-tetrahydropyrido[3,4-d]pyrimidin-4-amine]
–	–	–	+ (0 < x ≤ 20)	+ (0 < x ≤ 10)	+ (0 < x ≤ 20)	COc1ccc(CN=C=NC2CCN(c3nc(OC[C@@H]4CCCN4C)nc4c3CCN(c3cccc5cccc(C)c35)C4)CC2)c(OC)c1 [Example 82, N-(2,4-dimethoxybenzyl)-N-(1-(7-(8-methylnaphthalen-1-yl)-2-(((S)-1-methylpyrrolidin-2-yl)methoxy)-5,6,7,8-tetrahydropyrido[3,4-d]pyrimidin-4-yl)piperidin-4-yl)methanediimine]
+ (0 < x ≤ 20)	+ (0 < x ≤ 10)	+ (0 < x ≤ 20)	–	–	–	Fc1ccccc1-c1c(Cl)cc2c(N3CCN(C4=NCCO4)CC3)ncnc2c1F [Example 14, 2-(4-(6-chloro-8-fluoro-7-(2-fluorophenyl)quinazolin-4-yl)piperazin-1-yl)-4,5-dihydrooxazole]
–	–	–	++ (20 < x ≤ 40)	++ (10 < x ≤ 100)	++ (20 < x ≤ 100)	CCCN=C=NCC1CCN(c2nc(=O)n(-c3c(C)ccnc3C(C)C)c3nc(-c4ccccc4F)c(F)cc23)CC1 [Example 71, 6-fluoro-7-(2-fluorophenyl)-1-(2-isopropyl-4-methylpyridin-3-yl)-4-(4-((((propylimino)methylene)amino)methyl)piperidin-1-yl)pyrido[2,3-d]pyrimidin-2(1H)-one]
++ (20 < x ≤ 40)	++ (10 < x ≤ 100)	++ (20 < x ≤ 100)	–	–	–	CCCN=C=NCCCN(C)c1nc(=O)n(-c2c(C)ccnc2C(C)C)c2nc(-c3ccccc3F)c(F)cc12 [Example 55, 6-fluoro-7-(2-fluorophenyl)-1-(2-isopropyl-4-methylpyridin-3-yl)-4-(methyl(3-(((propylimino)methylene)amino)propyl)amino)pyrido[2,3-d]pyrimidin-2(1H)-one]
++ (20 < x ≤ 40)	++ (10 < x ≤ 100)	+ (0 < x ≤ 20)	–	–	–	Cc1ccnc(C(C)C)c1-n1c(=O)nc(N(C)CCCN=C=NCc2ccccc2)c2cc(F)c(-c3ccccc3F)nc21 [Example 57]

SMILES	G12D x-linking (%) ([1]; Table 4)	G12S x-linking (%) (K-Ras G12S; [3])	WT x-linking (%) ([2]; Table 4)	G12D x-linking (%) ([1]; Table 5)	G12S x-linking (%) (K-Ras G12S; [4])	WT x-linking (%) ([2]; Table 5)
O=C(NCCCl)NC1CCN(c2ncnc3c(F)c(-c4ccccc4F)c(Cl)cc23)CC1 [Example 10, 1-(1-(6-chloro-8-fluoro-7-(2-fluorophenyl)quinazolin-4-yl)piperidin-4-yl)-3-(2-chloroethyl)urea]	+ (0 < x ≤ 20)	+ (0 < x ≤ 10)	+ (0 < x ≤ 20)	–	–	–
Cc1cccc2cccc(N3CCc4c(nc(OC[C@@H]5CCCN5C)nc4N4CCN(C(=O)C5CN5)CC4)C3)c12 (stereo partly drawn) [Example 46, aziridin-2-yl(4-(7-(8-methylnaphthalen-1-yl)-2-(((S)-1-methylpyrrolidin-2-yl)methoxy)-5,6,7,8-tetrahydropyrido[3,4-d]pyrimidin-4-yl)piperazin-1-yl)methanone]	+ (0 < x ≤ 20)	+ (0 < x ≤ 10)	+ (0 < x ≤ 20)	–	–	–
O=C(C1CN1)N1CCN(c2ncnc3c(F)c(-c4ccccc4F)c(Cl)cc23)CC1 (stereo not drawn) [Example 16, aziridin-2-yl(4-(6-chloro-8-fluoro-7-(2-fluorophenyl)quinazolin-4-yl)piperazin-1-yl)methanone]	+ (0 < x ≤ 20)	+ (0 < x ≤ 10)	+ (0 < x ≤ 20)	–	–	–
